Laboratory results reported in patent US11779544B1, “Antithrombotic nanoparticles and methods for treating necrotizing enterocolitis” (University of South Florida, priority 2018, dated 2023).
Counter-ions that a name gives are not always drawn.

Assays:
plasma thrombin activity = assay: Plasma thrombin activity in pups pre-treated with PCI-27483 before intestinal injury; assay type: in vivo, mice; conditions: pre-treatment with PCI-27483
Text: FIGS. 5A-5F. Resident intestinal macrophages release tissue factor to activate thrombin during neonatal intestinal injury. FIG. 5a. Scatterplots (means±SEM) show tissue factor (TF) concentrations in plasma and intestinal tissue at serial time points during neonatal intestinal injury, measured by ELISA. N=6 mice/group; Kruskal Wallis H test with Dunn's post-test for group comparisons, * P<0.05, ** P<0.01 vs. control; FIG. 5b. Plasma thrombin activity in mouse pups with intestinal injury vs. mouse pups first treated with PCI-27483, which inhibits the tissue factor-factor VII extrinsic pathway tenase complex. N=4 mice/group; Kruskal Wallis H test with Dunn's post-test for group comparisons, ***P<0.001 vs. control, ##P<0.01 vs. control treated with PCI-27483; FIG. 5c. Representative fluorescence photomicrographs show immunoreactivity for TF (green) in F4/80^+ (red) resident macrophages in control ileum and colon. […] FIG. 5d Scatter plots on right summarize the fluorescence intensity for TF in control intestinal epithelial cells (IECs), control macrophages, injury IECs, and injury macrophages (top) and in control colonic epithelial cells (CECs), control macrophages, injury CECs, and injury macrophages. […]
To investigate the mechanisms for thrombin activation, tissue factor (TF) concentrations were evaluated during NEC-like intestinal injury. […]

P10 platelets [1] = assay: Recombinant thrombin treatment of mepacrine-stained platelets, dense granule discharge; assay type: cell-based, mice; conditions: recombinant thrombin (25 μg/mL)
Experimental: FIGS. 11A and 11B. Scatter bar diagrams (means±SEM) show (A) mepacrine fluorescence signal in platelets isolated from control P10 mice at serial time-points after treatment with recombinant thrombin (25 ng/mL). Fluorescence signal normalized and depicted as percent of control. Data represent 3 separate experiments; each experiment included platelets pooled from 3 pups; (B) mepacrine fluorescence signal released into the supernatant after thrombin stimulation. Kruskal Wallis H test with Dunn's post-test for group comparisons; ** P<0.01,*** P<0.001 vs. control.
(§1) Neonatal platelets can be hyporesponsive under specific conditions, [Mull M M, Hathaway W E. Altered platelet function in newborns. Pediatr Res. 1970; 4(3):229-237] and therefore, the ability of neonatal murine platelets to respond to thrombin was checked. Treatment of mepacrine-stained P10 platelets with recombinant thrombin ([…]) caused dense granule discharge within 15 min (FIG. 11). […]
(§2) Dense granules were stained with mepacrine (Quinacrine dihydrochloride; Sigma). […] Fluorescence was measured at 436/525 nm.

[2] = in vivo; cited from earlier work
[3] = cited from earlier work
YFP+ platelets = assay: Transfusion of bivalirudin-pretreated YFP+ platelets into pups with intestinal injury, CD31 expression; assay type: in vivo, mice; conditions: YFP+ platelets pre-treated with bivalirudin prior to transfusion, blood drawn 3 h after transfusion
Experimental: (§3) FIG. 3b. Plasma from mouse pups with intestinal injury activates platelets via thrombin. […] N=3 mice/group; 2 runs; Kruskal Wallis H test with Dunn's post-test for group comparisons, ** P<0.01 vs. control, #P<0.05 vs. intestinal injury; FIG. 3c Thrombin activates platelets during murine neonatal intestinal injury. YFP^+ platelets were transfused into WT C57BL/6 pups with intestinal injury, and blood samples were drawn after 3 h. […] Treatment of YFP^+ platelets with bivalirudin prior to transfusion blocked activation-related increase in CD31 expression (lower right). […] N=4 mice/group; Kruskal Wallis H test with Dunn's post-test for group comparisons, * P<0.05 vs. untreated YFP^+ platelets, #P<0.05 vs. endogenous platelets in the bivalirudin-treated YFP^+ platelet transfusion group. […]
(§4) Platelet activation markers were measured by flow cytometry, using the following fluorescence-labeled antibodies: JON/A (Emfret); anti-CD62P, anti-CD41/GPIIb, CD61/integrin αvβ3, CD31/PECAM-1 (BioLegend, San Diego, Calif.). Platelets were evaluated by size-gate threshold adjustment with microbeads of known diameter (100 nm to 1.3 μm; Spherotech, Lake Forest, Ill.) in forward and side-scatter. […] Platelet aggregation was measured by impedance method and ATP release by luminometry using a 2-channel Chrono-Log lumi-aggregometer (model 700, Chrono-Log, Havertown, Pa., USA) per established methods. […]

[4] = system: platelets from control pups; assay: CD31 expression on control platelets resuspended in intestinal injury plasma; assay type: cell-based, mice; conditions: bivalirudin 200 ng/mL; platelets resuspended ×45 min
Experimental: as §3, §4

P10 platelets [5] = assay: Duration of bivalirudin inhibition of thrombin-mediated dense granule discharge after point-exposure and wash; assay type: cell-based, mice; conditions: platelets treated with bivalirudin in vitro and washed; thrombin 25 ng/mL
Experimental: FIG. 13. Line diagrams (means±SEM) show mepacrine fluorescence signal released over time from control (blue) and bivalirudin-treated and washed (orange) P10 platelets into the supernatant, following treatment with thrombin (25 ng/mL). Data represent 3 separate experiments; each experiment included platelets pooled from 3 pups; Kruskal Wallis H test with Dunn's post-test for group comparisons; * P<0.05 vs. control.
In vivo assessment was performed for thrombin-mediated platelet activation during neonatal intestinal injury. […] In the next in vivo study, wild-type neonatal mice 3 h into intestinal injury were transfused with platelets expressing enhanced yellow fluorescence protein (YFP; platelets harvested from progeny of PF4-cre mice (C57BL/6-Tg(Cxcl4-cre)Q3Rsko/J)×R26-stop-YFP mutant mice (B6.129X1-Gt(ROSA)26Sortm1(EYFP)Cos/J). In some mice, YFP^+ platelets were pre-treated with bivalirudin prior to transfusion, and CD31 expression was then measured for both the endogenous and the bivalirudin-treated transfused YFP^+ platelets in blood samples drawn 3 h after the transfusion. Bivalirudin-pretreatment curtailed CD31 expression on YFP^+ platelets (FIG. 3c), providing further evidence for a role of thrombin as the primary platelet activator in NEC-like neonatal intestinal injury. […]

P10 platelets [6] = assay: Mixing experiment: dense granule discharge (mepacrine release) of control platelets resuspended in intestinal injury plasma; assay type: cell-based, mice; conditions: mepacrine fluorescence released into supernatant; intestinal injury plasma at 3 h with added inhibitor
Experimental: FIGS. 12A and 12B. (A) Scatter bar diagrams (means±SEM) show mepacrine fluorescence signal released from control P10 platelets into the supernatant, following resuspension in plasma from pups in (1) control group; (2) intestinal injury at 3 h; and (3) intestinal injury at 3 h with added bivalirudin, a synthetic peptide inhibitor of thrombin. N=6 mice/group; (B) mepacrine fluorescence released from control platelets following resuspension in plasma from (1) control group (N=8 mice); (2) intestinal injury at 3 h (N=12 mice); and (3) intestinal injury at 3 h with added D-phenylalanyl-prolyl-arginyl chloromethyl ketone (PPACK), a different thrombin inhibitor (N=11 mice). Kruskal Wallis H test with Dunn's post-test for group comparisons; * P<0.05, ** P<0.01 vs. control; #P<0.05, ###P<0.001 vs. intestinal injury plasma.
as §1, §2

## N=C(N)c1ccc2nc(-c3cc(CC(=O)N[C@@H](CC(=O)O)C(=O)O)cc(-c4cc(S(N)(=O)=O)ccc4O)c3O)[nH]c2c1 [PCI-27483]
Plasma thrombin activity
  rise in plasma thrombin activity during intestinal injury: blocked the rise

## recombinant thrombin: Recombinant mouse thrombin (Molecular Innovations), used as platelet activator
P10 platelets [1]
  time to dense granule discharge: ≤ 15 min

## N=C(N)NCCCC(NC(=O)C1CCCN1C(=O)[C@H](N)Cc1ccccc1)C(=O)CCl (stereo partly drawn) [PPACK, D-phenylalanyl-N-[(1S)-4-[(aminoiminomethyl)amino]-1-(2-chloroacetyl)butyl]-L-prolinamide, trifluoroacetate salt]
[2]
  distribution half-life: 7 min
  elimination half-life: 2.9 min
[3]; in vivo
  LD50: greater than 50 mg/kg
[3]; mice
  long-term toxicity: no long-term toxicity

## bivalirudin: synthetic peptide of 20 amino acids (SEQ ID NO: 1); specific and reversible direct thrombin inhibitor
YFP+ platelets
  CD31 expression on transfused YFP+ platelets: blocked
YFP+ platelets; listed as Bivalirudin
  CD31 expression on transfused YFP+ platelets: curtailed
[4]
  effects of intestinal injury plasma on platelet CD31 expression: blocked
P10 platelets [5]
  time bivalirudin-treated platelets remained refractory to thrombin: ≥ 120 min
P10 platelets [6]
  platelet dense granule discharge caused by plasma from mice with intestinal injury: blocked
